Earlier results on 1 compound are cited in patent US5138036A, “Isolation and structural elucidation of the cytostatic cyclodepsipeptide dolastatin 14” (Arizona Board of Regents acting on behalf of Arizona State …, priority 1989, dated 1992).

SMILES strings stand for the structures.

In one series the test system is human melanoma xenograph. The note with it: 3.25-26 μg/kg.
Series [1] has as its system P388 lymphocytic leukemia (PS system). The settings on record: 1-4 μg/kg.
The subject of another series is B16 melanoma. The settings on record: 1.44-11.1 μg/kg.

Turning to `CC[C@H](C)[C@@H]([C@@H](CC(=O)N1CCC[C@H]1[C@H](OC)[C@@H](C)C(=O)N[C@@H](Cc1ccccc1)c1nccs1)OC)N(C)C(=O)[C@@H](NC(=O)[C@H](C(C)C)N(C)C)C(C)C` [dolastatin 10], in the series on human melanoma xenograph, the curative response is recorded as 17-67%. Further, the life extension was 69-102% in series [1] and 42-138% with B16 melanoma.
